Experimental data from patent publication US12139492B2 (Endotarget Inc., priority 2021, dated 2024).
Where two headings read alike, the source gives them in different places.

Legend:
[1] = test system: Mino cells; experiment: Antiproliferative effect, MTS cell viability assay, Mino cells; format: cell-based; conditions: Homo sapiens, MINO, Mino mantle cell lymphoma cells; read-out: IC50 (anti-proliferation) Mino cells
How it was run: (§1)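 Absorbance at 490 nm of formazan, formed by metabolically active cells from MTS tetrazolium, served as the viability measure after a 72 h treatment across a 0.001–10 μM concentration series plus untreated control.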

[2] = test system: JeKo-1 cells; experiment: Antiproliferative effect, MTS cell viability assay, JeKo-1 cells; format: cell-based; conditions: Homo sapiens; JeKo-1 mantle cell lymphoma cells; read-out: IC50 (anti-proliferation) JeKO-1 cells
How it was run: as §1

[3] = biological target: BTK (Homo sapiens, UniProt Q06187); experiment: Degradation of BTK protein in Namalwa cells (Western blot; DC50, Dmax); conditions: for DC50: cell line not given
[4] = read-out: DC50 (BTK degradation), concentration giving 50% reduction of BTK expression level
[5] = read-out: Dmax (BTK degradation)

BTK, sequence (Q06187 whole entry): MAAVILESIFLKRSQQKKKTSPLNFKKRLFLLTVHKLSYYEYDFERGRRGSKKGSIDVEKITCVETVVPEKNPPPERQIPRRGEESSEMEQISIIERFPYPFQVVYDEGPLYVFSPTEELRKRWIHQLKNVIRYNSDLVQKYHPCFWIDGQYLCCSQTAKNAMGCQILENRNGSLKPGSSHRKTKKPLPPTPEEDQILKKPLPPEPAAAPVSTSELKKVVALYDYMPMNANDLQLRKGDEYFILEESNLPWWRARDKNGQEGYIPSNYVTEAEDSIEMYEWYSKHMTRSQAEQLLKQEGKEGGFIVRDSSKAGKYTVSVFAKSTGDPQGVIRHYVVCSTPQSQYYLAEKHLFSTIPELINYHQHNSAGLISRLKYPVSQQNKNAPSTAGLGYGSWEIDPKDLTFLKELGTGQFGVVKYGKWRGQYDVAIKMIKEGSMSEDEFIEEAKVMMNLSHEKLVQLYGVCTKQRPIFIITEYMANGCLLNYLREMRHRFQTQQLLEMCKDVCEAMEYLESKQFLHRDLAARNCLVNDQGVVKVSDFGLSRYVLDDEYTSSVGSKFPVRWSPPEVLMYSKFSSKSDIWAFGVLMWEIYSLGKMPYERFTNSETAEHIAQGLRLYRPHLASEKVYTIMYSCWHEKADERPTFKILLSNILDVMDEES

| Dmax [3] | DC50 ([3]; BTK degradation) | DC50 [3, 4] | Dmax [3, 5] | degradation of BTK protein ([3]; Namalwa B lymphocyte cells, various concentrations, 24 hours, Western blot) | Structure (SMILES) | IC50 [1] | IC50 [2] |
| --- | --- | --- | --- | --- | --- | --- | --- |
| > 90% | < 10 nM |  |  |  | NC(=O)c1c(-c2ccc(Oc3ccccc3)cc2)nn2c1NCCC2C1CCN(C(=O)N2CCC(CN3CCC(c4ccc5c(c4)CN(C4CCC(=O)NC4=O)C5=O)CC3)CC2)CC1 (stereo not shown) [Compound 280, 7-(1-(4-((4-(2-(2,6-dioxopiperidin-3-yl)-1-oxoisoindolin-5-yl)piperidin-1-yl)methyl)piperidine-1-carbonyl)piperidin-4-yl)-2-(4-phenoxyphenyl)-4,5,6,7-tetrahydropyrazolo[1,5-a]pyrimidine-3-carboxamide] | 1000 to 10000 nM | 1000 to 10000 nM |
|  |  | 10 to 50 nM | > 75% |  | Nc1ncnc2c1c(-c1ccc(Oc3ccccc3)cc1)nn2C1CCN(C2CCN(CC3CCN(c4ccc5c(c4)CN(C4CCC(=O)NC4=O)C5=O)C3)C2)CC1 (stereo not shown) [Compound 452, 3-(5-(3-((3-(4-(4-amino-3-(4-phenoxyphenyl)-1H-pyrazolo[3,4-d]pyrimidin-1-yl)piperidin-1-yl)pyrrolidin-1-yl)methyl)pyrrolidin-1-yl)-1-oxoisoindolin-2-yl)piperidine-2,6-dione] | < 1000 nM | 1000 to 10000 nM |
|  |  | 10 to 50 nM | > 75% |  | NC(=O)c1c(-c2ccc(Oc3ccccc3)cc2)nn2c1NCC[C@H]2C1CCN(CC2CCN(C(=O)N3CCC(N4CCC(c5ccc6c(c5)CN(C5CCC(=O)NC5=O)C6=O)CC4)CC3)CC2)CC1 (stereo partly drawn) [Compound 408, (7S)-7-(1-((1-(4-(2-(2,6-dioxopiperidin-3-yl)-1-oxoisoindolin-5-yl)-[1,4′-bipiperidine]-1′-carbonyl)piperidin-4-yl)methyl)piperidin-4-yl)-2-(4-phenoxyphenyl)-4,5,6,7-tetrahydropyrazolo[1,5-a]pyrimidine-3-carboxamide] | > 10000 nM | 1000 to 10000 nM |
|  |  | > 50 nM | > 90% | dose-dependent degradation | Nc1ncnc2c1c(-c1ccc(Oc3ccccc3)cc1)nn2C1CCN(CC2CCN(CC3CCN(CC4CN(c5ccc6c(c5)C(=O)N(C5CCC(=O)NC5=O)C6=O)C4)CC3)CC2)CC1 (stereo not shown) [Compound 431, 5-(3-((4-((4-((4-(4-amino-3-(4-phenoxyphenyl)-1H-pyrazolo(3,4-d)pyrimidin-1-yl)piperidin-1-yl)methyl)piperidin-1-yl)methyl)piperidin-1-yl)methyl)azetidin-1-yl)-2-(2,6-dioxopiperidin-3-yl)isoindoline-1,3-dione] | < 1000 nM | < 1000 nM |
|  |  | 10 to 50 nM | > 90% |  | Nc1ncnc2c1c(-c1ccc(Oc3ccccc3)cc1)nn2C1CCN(C2CCN(CC3CN(CC4CN(c5ccc6c(c5)CN(C5CCC(=O)NC5=O)C6=O)C4)C3)CC2)CC1 (stereo not shown) [Compound 438, 3-(5-(3-((3-((4-(4-amino-3-(4-phenoxyphenyl)-1H-pyrazolo[3,4-d]pyrimidin-1-yl)-[1,4′-bipiperidin]-1′-yl)methyl)azetidin-1-yl)methyl)azetidin-1-yl)-1-oxoisoindolin-2-yl)piperidin-2,6-dione] | 1000 to 10000 nM | 1000 to 10000 nM |

| Structure (SMILES) | Dmax [3] | DC50 ([3]; BTK degradation) | DC50 [3, 4] | Dmax [3, 5] | degradation of BTK protein ([3]; Namalwa B lymphocyte cells, various concentrations, 24 hours, Western blot) | IC50 [1] | IC50 [2] |
| --- | --- | --- | --- | --- | --- | --- | --- |
| Nc1ncnc2c1c(-c1ccc(Oc3ccccc3)cc1)nn2C1CCN(CCN2CCC(N3CCN(c4ccc5c(c4)C(=O)N(C4CCC(=O)NC4=O)C5=O)CC3)C2)CC1 (single isomer, unassigned) [Compound 459a, 5-(4-(1-(2-(4-(4-amino-3-(4-phenoxyphenyl)-1H-pyrazolo[3,4-d]pyrimidin-1-yl)piperidin-1-yl)ethyl)pyrrolidin-3-yl)piperazin-1-yl)-2-(2,6-dioxopiperidin-3-yl)isoindoline-1,3-dione] |  |  | 10 to 50 nM | > 90% |  | < 1000 nM | < 1000 nM |
